Reference: ChEMBL document CHEMBL1799954, “Structure and cytotoxicity of diterpenoids from Isodon adenolomus” (J Nat Prod, 2011)

Tests used:
Format in all cases: functional, cell-based
[1] = tested on: HL-60; assay: Cytotoxicity against human HL60 cells after 48 hrs by MTT method; settings: HL-60, 48 h
[2] = tested on: SMMC-7721; assay: Cytotoxicity against human SMMC7721 cells after 48 hrs by MTT method; settings: SMMC-7721, 48 h
[3] = tested on: SW480; assay: Cytotoxicity against human SW480 cells after 48 hrs by MTT method; settings: SW480, 48 h
[4] = tested on: MCF7; assay: Cytotoxicity against human MCF7 cells after 48 hrs by MTT method; settings: MCF7, 48 h
[5] = tested on: A549; assay: Cytotoxicity against human A549 cells after 48 hrs by MTT method; settings: A549, 48 h

Row | SMILES | IC50 [1] | IC50 [2] | IC50 [3] | IC50 [4] | IC50 [5]
1 | C=C1[C@@H](O)[C@]23[C@H](O)[C@H]1CC[C@H]2[C@@]12C(=O)O[C@]3(O)[C@@H](O)[C@@H]1C(C)(C)CC[C@@H]2OC(C)=O | > 10 µM | > 10 µM | > 10 µM | > 10 µM | > 10 µM
2 | C=C1C(=O)[C@]23C[C@H]1CC[C@H]2[C@@]12CO[C@@]3(O)[C@@H](O)[C@@H]1C(C)(C)CC[C@@H]2OC(C)=O [EFFUSANIN B] | 0.7 µM | 1 µM | 0.8 µM | 0.7 µM | 3.5 µM
3 | C=C1[C@@H](O)[C@@]23[C@H]4O[C@H]5O[C@]2(O)[C@@H](OC(C)=O)[C@@H]2C(C)(C)CCC[C@@]52[C@@H]3[C@@H](O)C[C@@H]14 [ISOADENOLIN A] | > 10 µM | > 10 µM | > 10 µM | > 10 µM | > 10 µM
4 | C=C1C(=O)[C@@]23[C@H]4O[C@H]5O[C@]2(O)[C@@H](O)[C@@H]2C(C)(C)CC[C@H](OC(C)=O)[C@]52[C@@H]3CC[C@@H]14 [ISOADENOLIN B] | > 10 µM | > 10 µM | > 10 µM | > 10 µM | > 10 µM
5 | COC[C@H]1C(=O)[C@@]23[C@H]4O[C@H]5O[C@]2(O)[C@@H](O)[C@@H]2C(C)(C)CC[C@H](O)[C@]52[C@@H]3CC[C@@H]14 [ISOADENOLIN C] | > 10 µM | > 10 µM | > 10 µM | > 10 µM | > 10 µM
6 | COC[C@@H]1C(=O)[C@]23[C@H](O)[C@H]1C[C@H](O)[C@H]2[C@@]12CCCC(C)(C)[C@H]1[C@H](O)[C@@]3(O)O[C@@H]2OC [ISOADENOLIN D] | > 10 µM | > 10 µM | > 10 µM | > 10 µM | > 10 µM
7 | C=C1[C@@H](O)[C@]23[C@H](O)[C@H]1C[C@H](O)[C@H]2[C@@]12CCCC(C)(C)[C@H]1[C@H](O)[C@@]3(O)O[C@@H]2OC [ISOADENOLIN E] | > 10 µM | > 10 µM | > 10 µM | > 10 µM | > 10 µM
8 | C=C1[C@@H](O)[C@]23[C@H](O)[C@H]1C[C@H](O)[C@H]2[C@@]12CCCC(C)(C)[C@H]1[C@H](OC(C)=O)[C@@]3(O)O[C@@H]2OC [ISOADENOLIN F] | > 10 µM | > 10 µM | > 10 µM | > 10 µM | > 10 µM
9 | C=C1[C@@H](O)[C@]23[C@H](O)[C@H]1C[C@H](OC(C)=O)[C@H]2[C@@]12CCCC(C)(C)[C@H]1[C@H](O)[C@@]3(O)O[C@@H]2OC [ISOADENOLIN G] | > 10 µM | > 10 µM | > 10 µM | > 10 µM | > 10 µM
10 | C=C1C(=O)[C@]23[C@H](O)[C@H]1CC[C@H]2[C@@]12[C@H](OC)O[C@]3(O)[C@@H](O)[C@@H]1C(C)(C)CC[C@@H]2OC(C)=O [ISOADENOLIN H] | > 10 µM | > 10 µM | > 10 µM | > 10 µM | > 10 µM
11 | C=C1C(=O)[C@]23C[C@H]1CC=C2[C@@]12CO[C@]3(O)[C@@H](O)[C@@H]1C(C)(C)CC[C@@H]2OC(C)=O [ISOADENOLIN I] | 2.6 µM | 3 µM | 3.1 µM | 2.6 µM | 5 µM
12 | C=C1C(=O)[C@@]23C(=CC[C@@H]1[C@H]2O)[C@@]12CO[C@]3(O)[C@@H](O)[C@@H]1C(C)(C)CC[C@@H]2OC(C)=O [ISOADENOLIN J] | > 10 µM | > 10 µM | > 10 µM | > 10 µM | > 10 µM
13 | C=C1[C@H]2C[C@]3(C(=C[C@@H]2O)[C@@]24CO[C@]3(O)[C@@H](O)[C@@H]2C(C)(C)CC[C@@H]4OC(C)=O)[C@@H]1O [ISOADENOLIN K] | 3.5 µM | 5.7 µM | 3.1 µM | 3 µM | 14.1 µM
14 | COC[C@H]1C(=O)[C@]23[C@H](O)[C@H]1CC[C@H]2[C@@]12CO[C@]3(O)[C@@H](O)[C@@H]1C(C)(C)CC[C@@H]2OC(C)=O [LASIOKAURININ] | 6.8 µM | 4.8 µM | 4.9 µM | 6 µM | 20.4 µM
15 | C=C1C(=O)[C@]23[C@H](O)[C@H]1CC[C@H]2[C@@]12CO[C@@]3(O)[C@@H](O)[C@@H]1C(C)(C)CC[C@@H]2OC(C)=O [LASIOKAURIN] | 3.2 µM | 2 µM | 2.3 µM | 5.3 µM | 7.6 µM
16 | C=C1C(=O)[C@]23C[C@H]1C[C@@H](OC(C)=O)[C@H]2[C@]12CCCC(C)(C)[C@H]1[C@H](O)[C@@]3(O)OC2 [LONGIKAURIN E] | 1.8 µM | 1.9 µM | 2.4 µM | 1.9 µM | 3.9 µM
17 | C=C1C(=O)[C@@]23[C@@H]4O[C@H]5O[C@@]2(O)[C@@H](O)[C@@H]2C(C)(C)CCC[C@]52[C@@H]3[C@@H](O)C[C@@H]14 [MACROCALIN B] | 12.4 µM | 9.1 µM | 10.9 µM | 26.9 µM | 31.9 µM
18 | CC(=O)O[C@H]1C(=O)[C@@]2(C)[C@H]([C@H](OC(=O)c3ccccc3)[C@]3(O)C[C@H](OC(=O)[C@H](O)[C@@H](NC(=O)c4ccccc4)c4ccccc4)C(C)=C1C3(C)C)[C@]1(OC(C)=O)CO[C@@H]1C[C@@H]2O [PACLITAXEL] | 0.01 µM | < 0.008 µM | < 0.008 µM | < 0.008 µM | < 0.008 µM
19 | C=C1C(=O)[C@@]23[C@@H]4OC5O[C@@]2(O)[C@@H](O)[C@@H]2C(C)(C)CC[C@@H](O)[C@]52[C@@H]3CC[C@@H]14 [PONICIDIN] | 7.4 µM | 5 µM | 2.8 µM | 16.3 µM | 16.5 µM
20 | C=C1C(=O)[C@@]23[C@@H]4O[C@H]5O[C@@]2(O)[C@@H](O)[C@@H]2C(C)(C)CCC[C@]52[C@@H]3CC[C@@H]14 [XEROPHILUSIN B] | 0.8 µM | 1.3 µM | 0.9 µM | 1.1 µM | 2 µM
21 | C=C1C(=O)[C@]23[C@H](O)[C@H]1CC[C@H]2[C@@]12[C@H](O)O[C@]3(O)[C@@H](O)[C@@H]1C(C)(C)CC[C@@H]2OC(C)=O [XEROPHILUSIN J] | 7.6 µM | 4.6 µM | 2.7 µM | 9.7 µM | 21.7 µM
22 | C=C1C(=O)[C@]23[C@H](O)[C@H]1CC[C@H]2[C@]12CCCC(C)(C)[C@H]1[C@H](O)[C@]3(O)OC2=O [XEROPHILUSIN N] | 3.8 µM | 3.6 µM | 3.5 µM | 7.9 µM | 9.7 µM
